Test results: US9445597B2, “Pesticidal compositions and related methods” (DOW AGROSCIENCES LLC, priority 2013, dated 2016)
Where two headings read alike, the source gives them in different places.

What was measured:
[1] = test system: Sweetpotato Whitefly-crawler (WF) (Bemisia tabaci) (BEMITA); assay: Insecticidal test for Sweetpotato Whitefly-crawler (WF) in foliar spray assay on cotton plants; type: in vivo; details: 216 h, read-out: % Control (or Mortality) rating, WF
Protocol: Example B: Insecticidal test for Sweetpotato Whitefly-crawler (WF) (Bemisia tabaci) (BEMITA) in foliar spray assay.
Cotton plants (Gossypium hirsutum) grown in 3-inch pots, with 1 small (4-5 cm) true leaves, were used as test substrate. The plants were infested with 200-400 whitefly eggs 4-5 days prior to chemical application. Four pots with individual plants were used for each treatment. Test compounds (2 mg) were dissolved in 1 mL of acetone solvent, forming stock solutions of 2000 ppm test compound. The stock solutions were diluted 10× with 0.025% Tween 20 in H2O (diluents) to obtain the solution at 200 ppm test compound. A hand-held aspirator-type sprayer was used for spraying a solution to both sides of cotton leaves until runoff. Reference plants (solvent check) were sprayed with the diluent only containing 10% by volume of acetone solvent. Treated plants were held in a holding room for 9 days at approximately 25° C. and ambient relative humidity (RH) prior to grading. Evaluation was conducted by counting the number of live 3-4 nymph stage per plant under a microscope. Percent control was measured by using Abbott's correction formula (W. S. Abbott, “A Method of Computing the Effectiveness of an Insecticide” J. Econ. Entomol. 18 (1925), pp. 265-267) as follows. Corrected % Control=100*(X−Y)/X • where • X=No. of live nymphs on solvent check plants and • Y=No. of live nymphs on treated plants.
(§1) Biological Data for Green Peach Aphid (GPA) (MYZUPE) and Sweetpotato Whitefly-crawler (WF) (BEMITA)” (see table section).

[2] = test system: Green Peach Aphid (Myzus persicae) (GPA) (MYZUPE); assay: Bioassay for Green Peach Aphid (GPA), foliar spray on cabbage seedlings; type: in vivo; details: 72 h, read-out: % Control (or Mortality) rating, GPA
Protocol: Example A: Bioassay for Green Peach Aphid (Myzus persicae) (GPA) (MYZUPE).
Cabbage seedlings grown in 3-inch pots, with 2-3 small (3-5 cm) true leaves, were used as test substrate. The seedlings were infested with 20-50 GPA (wingless adult and nymph stages) one day prior to chemical application. Four pots with individual seedlings were used for each treatment. Test compounds (2 mg) were dissolved in 2 mL of acetone/methanol (1:1) solvent, forming stock solutions of 1000 ppm test compound. The stock solutions were diluted 5× with 0.025% Tween 20 in H2O to obtain the solution at 200 ppm test compound. A hand-held aspirator-type sprayer was used for spraying a solution to both sides of […] leaves until runoff. Reference plants (solvent check) were sprayed with the diluent only containing 20% by volume of acetone/methanol (1:1) solvent. Treated plants were held in a holding room for three days at approximately 25° C. and ambient relative humidity (RH) prior to grading. Evaluation was conducted by counting the number of live aphids per plant under a microscope. Percent control was measured by using Abbott's correction formula (W. S. Abbott, “A Method of Computing the Effectiveness of an Insecticide” J. Econ. Entomol. 18 (1925), pp. 265-267) as follows. Corrected % Control=100*(X−Y)/X • where • X=No. of live aphids on solvent check plants and • Y=No. of live aphids on treated plants
as §1

[3] = 200 ppm foliar spray, cotton plants, graded after 9 days, Abbott corrected % control
[4] = 200 ppm foliar spray, cabbage seedlings, graded after three days, Abbott corrected % control

`CCN(C(=O)C(C)C[S+](C)[O-])c1sc(-c2ccc[n+]([O-])c2)nc1Cl` (centres unmarked) [Compound P7, 3-(4-Chloro-5-(N-ethyl-2-methyl-3-(methylsulfinyl)propanamido)thiazol-2-yl)pyridine 1-oxide] was tested, and the mortality at 200 ppm [1, 3] was 80 to 100% and the mortality at 200 ppm [2, 4] was 80 to 100%.

Compound `CCN(C(=O)CCS(C)(=O)=O)c1sc(-c2ccc[n+]([O-])c2)nc1Cl` [Compound F3, 3-(4-chloro-5-(N-ethyl-3-(methylsulfonyl)propanamido)thiazol-2-yl)pyridine 1-oxide] has a mortality at 200 ppm [1, 3] of 80 to 100% and a mortality at 200 ppm [2, 4] of 80 to 100%.

Compound `CCN(C(=O)CC[S+]([O-])CCC(F)(F)F)c1sc(-c2ccc[n+]([O-])c2)nc1Cl` (centres unmarked) [Compound P2, 3-(4-Chloro-5-(N-ethyl-3-((3,3,3-trifluoropropyl)sulfinyl)propanamido)thiazol-2-yl)pyridine 1-oxide] has a mortality at 200 ppm [1, 3] of 80 to 100% and a mortality at 200 ppm [2, 4] of 80 to 100%.

Work on `CCN(C(=O)CC[S+](C)[O-])c1sc(-c2ccc[n+]([O-])c2)nc1Cl` (centres unmarked) [Compound P5, 3-(4-Chloro-5-(N-ethyl-3-(methylsulfinyl)propanamido)thiazol-2-yl)pyridine 1-oxide] yielded a mortality at 200 ppm [1, 3] of 80 to 100% and a mortality at 200 ppm [2, 4] of 80 to 100%.

`CS(=O)(=O)CCC(=O)Nc1sc(-c2ccc[n+]([O-])c2)nc1Cl` [Compound F2] showed a mortality at 200 ppm [1, 3] of 0 to 80% and a mortality at 200 ppm [2, 4] of 80 to 100%.

`Cc1nc(-c2cc(F)c[n+]([O-])c2)sc1N(C)C(=O)CCS(C)(=O)=O` [FA2, 3-Fluoro-5-(4-methyl-5-(N-methyl-3-(methylsulfonyl)propanamido)thiazol-2-yl)pyridine 1-oxide] gave a mortality at 200 ppm [1, 3] of 80 to 100% and a mortality at 200 ppm [2, 4] of 80 to 100%.

For `Cc1nc(-c2cc(F)c[n+]([O-])c2)sc1N(C)C(=O)OC(C)(C)C` [CA1, 3-(5-((tert-Butoxycarbonyl)(methyl)amino)-4-methylthiazol-2-yl)-5-fluoropyridine 1-oxide], the mortality at 200 ppm ([1]; foliar) was 0 to 80% and the mortality at 200 ppm ([2]; foliar) was 80 to 100%.

For `CSCCC(=O)Nc1sc(-c2cccnc2)nc1Cl` [Compound C3, N-(4-chloro-2-(pyridin-3-yl)thiazol-5-yl)-3-(methylthio)propanamide], the mortality at 200 ppm [1, 3] was 0 to 80% and the mortality at 200 ppm [2, 4] was 80 to 100%.

Compound `CCN(C(=O)CCSC)c1sc(-c2ccc[n+]([O-])c2)nc1Cl` [Compound P4, 3-(4-Chloro-5-(N-ethyl-3-(methylthio)propanamido)thiazol-2-yl) pyridine 1-oxide] has a mortality at 200 ppm [1, 3] of 80 to 100% and a mortality at 200 ppm [2, 4] of 80 to 100%.

`Cc1nc(-c2cc(F)c[n+]([O-])c2)sc1N(C)C(=O)CC[S+](C)[O-]` (centres unmarked) [FA3, 3-Fluoro-5-(4-methyl-5-(N-methyl-3-(methylsulfinyl)propanamido)thiazol-2-yl)pyridine 1-oxide] gave a mortality at 200 ppm [1, 3] of 80 to 100% and a mortality at 200 ppm [2, 4] of 80 to 100%.

For `CCN(C(=O)CCS(=O)(=O)CCC(F)(F)F)c1sc(-c2ccc[n+]([O-])c2)nc1Cl` [Compound P3, 3-(4-Chloro-5-(N-ethyl-3-((3,3,3-trifluoropropyl)sulfonyl)propanamido)thiazol-2-yl)pyridine 1-oxide], the mortality at 200 ppm [1, 3] was 80 to 100% and the mortality at 200 ppm [2, 4] was 80 to 100%.

In the case of `CSCCC(=O)N(C)c1sc(-c2cc(F)c[n+]([O-])c2)nc1C` [FA1, 3-Fluoro-5-(4-methyl-5-(N-methyl-3-(methylthio)propanamido)thiazol-2-yl)pyridine 1-oxide], the mortality at 200 ppm [1, 3] is reported as 80 to 100% and the mortality at 200 ppm [2, 4] is reported as 80 to 100%.

`CCN(C(=O)C(C)CSC)c1sc(-c2ccc[n+]([O-])c2)nc1Cl` (centres unmarked) [Compound P6, 3-(4-Chloro-5-(N-ethyl-2-methyl-3-(methylthio)propanamido)thiazol-2-yl)pyridine 1-oxide] gave a mortality at 200 ppm [1, 3] of 80 to 100% and a mortality at 200 ppm [2, 4] of 80 to 100%.

With `CCN(C(=O)CCSCCC(F)(F)F)c1sc(-c2ccc[n+]([O-])c2)nc1Cl` [Compound P1, 3-(4-chloro-5-(N-ethyl-3-((3,3,3-trifluoropropyl)thio)propanamido)thiazol-2-yl)pyridine 1-oxide] the mortality at 200 ppm [1, 3] was 80 to 100% and the mortality at 200 ppm [2, 4] was 80 to 100%.

`CC(CS(C)(=O)=O)C(=O)N(C)c1sc(-c2ccc[n+]([O-])c2)nc1Cl` (centres unmarked) [Compound F1, 3-(4-Chloro-5-(N,2-dimethyl-3-(methylsulfonyl)propanamido)thiazol-2yl) pyridine 1-oxide] was tested, and the mortality at 200 ppm [1, 3] was 0 to 80% and the mortality at 200 ppm [2, 4] was 80 to 100%.

`CCN(C(=O)C(C)CS(C)(=O)=O)c1sc(-c2ccc[n+]([O-])c2)nc1Cl` (centres unmarked) [Compound P8, 3-(4-Chloro-5-(N-ethyl-2-methyl-3-(methylsulfonyl)propanamido)thiazol-2-yl)pyridine 1-oxide] showed a mortality at 200 ppm [1, 3] of 80 to 100% and a mortality at 200 ppm [2, 4] of 80 to 100%.
